Patent US20240268372A1, “Methods and Compositions for Extending Organ and Tissue Preservation” (The General Hospital Corporation, priority 2021, published 2024)

Tests used:
[1] = system: discarded DCD human livers; test: Normothermic machine perfusion (NMP) of discarded human livers with emricasan in the perfusate: hepatocellular and cholangiocellular function
Description: Human liver perfusions: Sixteen human livers from donation after circulatory death, with consent for research, were included in this study after being turned down by all transplant centers in the respective region of procurement. Human livers were procured in standard fashion through two Organ Procurement Organizations (OPO): New England Donor Services (Waltham, MA, USA) and LiveOnNewYork (New York, NY). In addition, one liver was obtained through the International Institute for the Advancement of Medicine (IIAM, Edison, NJ), which originated from the Gift of Life Donor Program (Philadelphia, PA). Informed consent was obtained from donors by the OPO. The Massachusetts General Hospital and Lifespan Institutional Review Boards, as well as the two OPOs and IIAM, approved this study (No. 2011P001496). No organs were procured from prisoners and no vulnerable populations were included in this study.
Procurement techniques based on donation after circulatory death followed standard methods. Donor livers were flushed in situ with University of Wisconsin solution. Total warm ischemic time was defined as the period from extubation to cold flush. Functional WIT was defined as the period from asystole to cold flush. Cold ischemic time was defined from cold flush to initiation of machine perfusion. All livers were transported via ground courier. After arrival to the laboratory under static cold storage, livers underwent standard back bench preparation for machine perfusion.
Grafts were perfused on the Liver Assist device (Organ Assist, Groningen, Netherlands) using a previously described protocol (see, e.g., ref. 14). Briefly, perfusate composition consisted of O+ packed red blood cells, human albumin, Lactated Ringer's solution, and heparin. […] Perfusate, bile, and tissue biopsies were collected and analyzed at multiple time points. Grafts were assessed for adequate hepatocellular and cholangiocellular function. […] Cholangiocellular (biliary) viability metrics were measured according to van Leeuwen (see, e.g., ref. 15). […]

[2] = system: discarded DCD human livers; test: Perfusate plasma apoptosis biomarkers, cell-free DNA and cytokines during liver NMP (ELISA kits)
Protocol: With respect to the experimental group (emricasan, EM), 5 consecutive human livers turned down for transplant were enrolled. Emricasan, also known as IDN-6556 (MedChemExpress, Monmouth Junction, NJ), dissolved in DMSO was added to the circulating perfusate prior to initiation of liver perfusion at a dose of 5 mg/kg liver weight (1 mL total volume, 0.05% v/v total perfusate). Vehicle control (1 mL DMSO) was previously incorporated in the control liver perfusions (FIG. 6).
Protein Analysis: Perfusate collected at the indicated time points was centrifuged at 5000 g and the plasma collected and stored at −80° C. for later analysis. Enzyme-linked immunosorbent assays (ELISA) were performed for various proteins according to manufacturers' guidelines.

[3] = system: discarded DCD human livers; test: Western immunoblot and LC3B immunohistochemistry of liver biopsies during NMP (UPR, autophagy, necroptosis)
Protocol: Sequential wedge biopsies from the right lobe of each liver were performed at indicated intervals, flash frozen in liquid nitrogen, and stored at −80° C. Tissue samples (20 mg) were homogenized and Western immunoblots performed as previously described (see, e.g., ref. 16). A full list of antibodies used is provided below in Table 3.
To compare target protein expression, densitometry quantification was conducted. Both proteins varied across samples and the changes were not consistent between the 2 proteins, with the variation representing the biologic variability in the human liver.
In brief, immunohistochemistry was performed using antibodies directed toward LC3B (Product No. NB100-2220, Novus Biologicals, Littleton, CO, USA). Paraffin sections (6 μm) were deparaffinized with xylene and rehydrated with graded ethanol. Antigen retrieval was performed by sub-boiling in 1×-diluted Dako Target Retrieval Solution for 10 min (DakoCytomation, Inc., Carpinteria, CA). Slides were then quenched in 3% H2O2 and blocked in 2.5% Normal Horse Serum (Vector Labs, Burlingame, CA) before overnight incubation in primary antibody (1:200 dilution) at 4° C. Slides were incubated with a horseradish-peroxidase conjugated secondary rabbit antibody (Vector Laboratories) for 1 hr prior to staining with DAB (Vector Laboratories). Slides were counterstained with hematoxylin. Omission of the primary antibody served as a negative control.

[4] = system: discarded DCD human livers; test: RNA sequencing of liver biopsies during NMP (differential expression, IPA, GO)
Protocol: RNA purification and sequencing: Core needle biopsies taken immediately prior to perfusion and after 3 and 6 hours of perfusion were used for transcriptome sequencing. […] The differential gene expression threshold for significance was set to a Benjamini-Hochberg false discovery rate (FDR)<0.05.
In brief, tissues samples from livers taken immediately prior to perfusion and after 3 and 6 hours of perfusion were used for transcriptome sequencing. Core needle biopsies from the right liver lobe were collected in RNAlater solution (Sigma-Millipore, Waltham, MA, USA) and stored overnight at 4° C. Tissue samples were then removed from solution and stored at −80° C. Total RNA was isolated using the RNeasy Mini Kit (Qiagen, Germantown, MD, USA) according to manufacturer guidelines. 500 ng of each sample was sequenced on an Illumina HiSeq 4000 using 9 PCR cycles by GENEWIZ (South Plainfield, NJ, USA). Raw RNA-Seq data files were transferred to the Brown University computing cluster via sFTP and aligned to the human genome build 38 using STAR 2.7.3a (see, e.g., ref. 25). While sequencing was performed in two batches, the alignment was performed on all samples simultaneously using the same settings.
In brief, raw read counts were normalized using the Trimmed Mean of M method following removal of low-count genes (fewer than 10 reads in the smallest library). Differential gene expression analysis was conducted in R (see, e.g., ref. 27) using edgeR (see, e.g., ref. 28). The significance cutoff for differential gene expression was set to a Benjamini-Hochberg false-discovery rate (FDR or q-value)<0.05. Canonical pathway and upstream regulator enrichment analysis was generated through Ingenuity Pathway Analysis (IPA, Qiagen) (see, e.g., ref. 29). […]
Gene ontology (GO) enrichment analysis was performed using the R package GOseq (see, e.g., ref. 31). […] The genes with the highest amount of variance explained by principal component 1, 2, or 3 cumulatively totaling to 10% of the total variance explained by the specified PC were further analyzed.

[5] = system: discarded DCD human livers; test: H&E histology of liver biopsies during NMP; conditions: EM, IHF and AHF livers
Protocol: Histology and immunohistochemistry: Core needle biopsies taken from the right liver lobe at indicated intervals were fixed in formalin and embedded in paraffin. Hematoxylin and eosin (H&E) stains were performed on all biopsies to assess the degree of necrosis, inflammatory cell infiltrate, and reperfusion injury using a validated scoring system (see, e.g., ref. 17). Immunohistochemistry for LC3 was performed as previously described (see, e.g., ref. 3).

[6] = system: rodent LT models; conditions: drug given at the time of liver procurement; cited from earlier work
[7] = system: LT recipients; conditions: emricasan in preservation flush solution vs placebo group; cited from earlier work
[8] = clinical trials for liver transplant and NASH; cited from earlier work

Question: For `C[C@H](NC(=O)C(=O)Nc1ccccc1C(C)(C)C)C(=O)N[C@@H](CC(=O)O)C(=O)COc1c(F)c(F)cc(F)c1F` [emricasan], which “number of emricasan-treated livers demonstrating adequate hepatocellular function” value ([1]; 5 livers treated, 5 mg/kg liver weight in perfusate, NMP) is on record?
Answer: 4

Question: And the “IRI in cholangiocytes / cholangiocellular function” value ([1]; end-ischemic NMP of DCD livers)?
Answer: did not appear to improve IRI in cholangiocytes

Question: And the “ischemia-reperfusion injury in hepatocytes” value ([1]; treatment during NMP after cold and warm ischemia)?
Answer: mitigated

Question: What about the “circulating cell-free DNA (DAMP)” value ([2]; NMP, compared to control groups) of the same compound?
Answer: significantly reduced

Question: What about the “perfusate caspase-3/7 enzyme activity” value ([2]; NMP, vs control groups) of the same compound?
Answer: significantly lower

Question: What about the “perfusate level of cleaved cytokeratin 18” value ([2]; NMP, vs control groups) of the same compound?
Answer: significantly lower

Question: And the “evidence of apoptosis (circulating cleaved cytokeratin 18 and caspase-3/7 activity)” value ([2]; after both 3 and 6 hours of NMP)?
Answer: significantly decreased

Question: And the “cell-free DNA in perfusate” value ([2]; at 1 and 6 hours of NMP)?
Answer: significantly lower

Question: What about the “circulating interleukin-1β (IL-1β)” value ([2]; compared only to IHF livers) of the same compound?
Answer: lower

Question: And the “circulating tumor necrosis factor-α (TNFα)” value ([2]; compared only to IHF livers)?
Answer: lower

Question: What about the “perfusate interferon-γ (IFNG)” value ([2]; compared to AHF and IHF groups) of the same compound?
Answer: significantly lower

Question: What about the “perfusate interleukin-6 (IL-6)” value ([2]; compared to AHF and IHF groups) of the same compound?
Answer: significantly lower

Question: What about the “perfusate interleukin-8 (IL-8)” value ([2]; compared to AHF and IHF groups) of the same compound?
Answer: significantly lower

Question: What about the “shift of LC3B to granule staining pattern (immunohistochemistry)” value ([3]; 3 and 6 hr of NMP) of the same compound?
Answer: not observed

Question: And the induction of necroptosis ([3]; NMP with emricasan)?
Answer: did not lead to induction of necroptosis

Question: And the Phospho-MLKL ([3]; before and during perfusion)?
Answer: below the limit of detection

Question: What about the “enrichment of IRI canonical pathways (innate immunity, sinusoidal endothelial cell activation), IPA” value ([4]; 3 and 6 h vs pre-perfusion) of the same compound?
Answer: minimal enrichment

Question: What about the “differentially expressed genes after 3 and 6 hours of NMP vs pre-perfusion” value ([4]; compared to both control groups) of the same compound?
Answer: markedly smaller set of DEGs

Question: And the “upregulation of pro-inflammatory and pro-death genes” value ([4]; compared to controls (viable and nonviable livers))?
Answer: decreased upregulation

Question: And the “inflammatory infiltrate or necrosis (H&E histology)” value [5]?
Answer: no significant differences

Question: What about the “survival in rodent LT models” value [6] of the same compound?
Answer: improved

Question: And the “AST and ALT levels in LT recipients” value [7]?
Answer: significantly lower

Question: What about the “safety and tolerance profile” value [8] of the same compound?
Answer: excellent
